The test system of assay [1] is hBD-2. Kind of assay: Induction of hBD-2 in normal human keratinocytes, ELISA on cells related to MTT (Examples 3, 6, 7). The format is cell-based. Conditions: for production of hBD-2 (in words): Example 7, tested separately, commercial origin; for Modulation of the synthesis of HBD-2 (% increase with respect to control cells): proportions corresponding to 1% of a 5% solution of MS of batch A, i.e. 0.05% MS. How it is done: The keratinocytes of normal humans were inoculated in a 96 well plaque (about 20000 cells/well), in the presence of a specific medium enriched in calcium (final concentration 1.3 mM), as previously described in the publication “Human β-Defensin-2 production in Keratinocytes is regulated by Interleukin-1, Bacteria, and the State of Differentiation”, Alice Y. Liu et al., The Society for Investigative Dermatology, vol. 118, No. 2, February 2002, pages 275 to 281.
After an incubation of 24 hours at 37° C., 5% CO2: • 2 rinses with 200 μl/well of PBS (phosphate buffer in saline solution) • stimulation of the cells by 200 μl/well (in a Ca^++ supplemented medium): • by the hydrosoluble extract of sugars of avocado at concentrations of 0.5, 0.05 and 0.005 w/w of dry matter • by IL-1β at a concentration of 100 ng/ml (positive control of induction of hBD-2) III. End of Treatment (J2): ELISA
After 24 hours of incubation, the induction of the hBD-2 was evaluated by an ELISA method with a specific antibody (goat polyclonal to human BD2; Abcam; ab9871). The results obtained with the hydrosoluble extract of sugars of avocado, batch A, comprising 40% of D-mannoheptulose and 40% perseitol, based on the dry weight, are summarised in Table 8 below:
The same test as in example 3 was carried out with: • a mixture of fructose (5%), glucose (5%) and saccharose (3%); • D-mannoheptulose (40%); • perseitol (40%); • a mixture of fructose (5%), glucose (5%) saccharose (3%) and D-mannoheptulose (40%); • a mixture of fructose (5%), glucose (5%) saccharose (3%) and perseitol (40%); • a mixture of fructose (5%), glucose (5%) saccharose (3%) D-mannoheptulose (40%) and perseitol (40%); and • an extract of avocado sugars (batch A).
The same test as in example 3 was carried out with commercially available D-mannoheptulose and perseitol.

The test system of assay [2] is tumorous cells of Ehrlich ascites sarcoma. To be noted: perseitol associated with a potassium ion; cited from earlier work.
Assay [3] deals with hBD-2. Kind of assay: Expression of hBD-2 modulated by IL-4 in keratinocytes, in vitro modelling of atopic dermatitis. In kind it is cell-based, human. How it is done: The keratinocytes of normal humans were inoculated as described in example 3.
After 24 hours of incubation at 37° C., 5% of CO2, the culture medium was eliminated and the cellular carpet was rinsed twice with PBS. The cells were then treated for 24 hours under the conditions defined below: • Control cells: medium only • IL-1β at 100 ng/ml (positive control for induction of hBD-2) • IL-4 at 50 ng/ml • Hydrosoluble extract of sugars of avocado (batch A) at 0.5% w/w of dry matter • IL-1β at 100 ng/ml and IL-4 at 50 ng/ml • IL-4 at 50 ng/ml and hydrosoluble extract of sugars of avocado (batch A) at 0.05% w/w of dry matter • IL-1β at 100 ng/ml and IL-4 at 50 ng/ml and hydrosoluble extract of sugars of avocado (batch A) at 0.05% w/w of dry matter
At the end of the treatment, the induction of hBD-2 was evaluated by an ELISA method on cells; in parallel, in order to determine the total number of cells in each well, a test with MTT was run in parallel on the cells treated under the same conditions. Thus, for each condition, the OD450 hBD-2 was divided by the OD570 MTT to obtain the quantity of hBD-2 produced per living cell.

Assay [4] has as its system hBD-2. Kind of assay: Induction of hBD-2 in KB epithelial cells, ELISA on cells related to MTT. The format is cell-based, human. Conditions: 48 hours, 100 ng/ml. The procedure:
(§1) The cells KB (ATCC CCL-17), line of epithelial cells from a human oral carcinoma, commonly used in studies of the buccal cavity, were inoculated in plaques of 96 wells and cultivated in RPMI 1640 (Roswell Park Memorial Institute Medium) with Glutamax™1 at 10% VFS (veal fœtal serum)+antibiotics.
(§2) After 24 hours of incubation, the culture medium was eliminated and the cellular carpet was rinsed twice with PBS.
(§3) The cells were then treated under the conditions defined above during 24 and 48 hours: • Control cells: medium only • TNFα (commercialised by Sigma) at 100 ng/ml • hydrosoluble extract of sugars of avocado (40% mannoheptulose/40% perseitol) at 0.005-0.05 and 0.5 w/w (of dry matter) (batch A) 3. End of Treatment • Analysis of the antimicrobial peptides by ELISA on cells
After 48 hours of incubation under the different treatment conditions, the β-defensins 2 and 3 and the LL-present in the cells KB were analysed by an ELISA method on cells. […]
(§4) For each condition of treatment, the OD450 AMPs (antimicrobial peptides) was divided by the OD570 MTT to calculate the quantity of AMPs produced per living cell.
(§5) The averages and the standard deviations were calculated for each condition and the induction of different AMPS was calculated as the percentage increase with respect to the control cells.

For another assay, the system named is hBD-3. Kind of assay: Induction of hBD-3 in KB epithelial cells, ELISA on cells related to MTT. The format is cell-based, human. Conditions: 48 hours, 100 ng/ml. How it is done: as §1, §2, §3
(§6) After 48 hours of incubation under the different treatment conditions, the β-defensins 2 and 3 and the LL-present in the cells KB were analysed by an ELISA method on cells.
(§7) In order to determine the total number of cells in each well, a test with MTT was run in parallel on the cells treated under the same conditions. • Utilisation of the results
as §4, §5

The next assay concerns LL-37. The assay is described as follows: Induction of LL-37 in KB epithelial cells, ELISA on cells related to MTT. In kind it is cell-based, human. Conditions: 48 hours, 100 ng/ml. The procedure:
as §1, §2, §3, §6, §7, §4, §5

Setting [5] is: Example 7, commercial origin, 0.0012%.
Setting [6] is: Example 7, commercial origin, 0.012%.

Values joined by “and” are separate entries in the source; they are usually repeats but may differ in a detail not shown here. Equal values may be shown once.

These results are taken from US9023810B2, “Use of a compound comprising D-mannoheptulose and/or perseitol for treating and preventing innate immunity modification diseases” (Laboratories Expanscience, priority 2004, dated 2015).

Regarding `O=C(CO)[C@@H](O)[C@@H](O)[C@H](O)[C@H](O)CO` [D-mannoheptulose], the “effect on the synthesis of HBD-2 (in words)” value with hBD-2 [1] (Example 6, sugars in the proportions of batch A) is “more active than the perseitol”. Further, the “Average (hBD-2, same test as in example 3)” value with hBD-2 [1] (setting [5]) is on record as 0.089. Further, the “Average (hBD-2, same test as in example 3)” value in the assay on hBD-2 [1] (setting [6]) is 0.089. In the assay on hBD-2 [1], the “production of hBD-2 (in words)” value was “capable of inducing the production of hBD-2” and the “Modulation of the synthesis of HBD-2 (% increase with respect to control cells)” value came out at 31%.

Turning to `OCC(O)C(O)C(O)C(O)C(O)CO` (stereo not drawn) [Perseitol], in the assay with hBD-2 [1] (setting [5]), the “Average (hBD-2, same test as in example 3)” value is recorded as 0.063. Moreover, the “Average (hBD-2, same test as in example 3)” value in the assay on hBD-2 [1] (setting [6]) was found to be 0.090. Besides, in the assay on hBD-2 [1], the “production of hBD-2 (in words)” value was “capable of inducing the production of hBD-2” and the “Modulation of the synthesis of HBD-2 (% increase with respect to control cells)” value was 12%. The “incorporation of leucine-3H into tumorous cells (in words)” value in assay [2] is “enables leucine-3H to be incorporated”.

On to “IL-1β: positive control of induction of hBD-2, 100 ng/ml”, for which, in the assay with hBD-2 [1] (Example 7, positive control), the “Average (hBD-2, same test as in example 3)” value came out at 0.104. Also, in the assay on hBD-2 [1] (keratinocytes, 24 h, 100 ng/ml), the “% increase vs. control” value was determined as 128%; the “hBD-2/MTT (single values)” value was 0.223 OD and 0.324 OD and 0.273 OD and 0.322 OD. In addition, the “hBD-2/MTT (single values)” value with hBD-2 [3] (24 hours, IL-1β 100 ng/ml) is 0.291 OD and 0.308 OD and 0.347 OD. Also, the “increase in the synthesis of hBD-2 with respect to the control cells” value with hBD-2 [3] (IL-1β 100 ng/ml) was determined as 80%.

With “IL-4: interleukine-4, mediator of atopy, 50 ng/ml”, in the assay with hBD-2 [3] (24 hours, IL-4 50 ng/ml), the “hBD-2/MTT (single values)” value was 0.160 OD and 0.158 OD and 0.163 OD; the “hBD-2/MTT Average” value was 0.160 +/− 0.002 OD. Besides, the “inhibition of the synthesis of hBD-2 induced by IL-1β” value with hBD-2 [3] (IL-4 50 ng/ml with IL-1β 100 ng/ml) came to 32%. The “influence on the quantity of hBD-2 expressed by the keratinocytes (in words)” value in the assay with hBD-2 [3] (IL-4 alone, 50 ng/ml) is “no influence”.

Turning to TNFα, in the assay with hBD-2 [4], the “Induction of HBD-2 % increase” value amounted to 239% and the “OD hBD2/OD MTT average” value is given as 0.037. For the same compound, in the assay with hBD-3, the “Induction of HBD-3 % increase” value is reported as 30%; the “OD hBD3/OD MTT (wells)” value was 0.431 and 0.448 and 0.399 and 0.407 and 0.374; the “OD hBD3/OD MTT average” value is listed as 0.410. In addition, in the assay with LL-37, the “Induction of LL-37 % increase” value is 88%; the “OD LL-37/OD MTT (wells)” value was 0.080 and 0.072 and 0.077 and 0.091 and 0.082 and 0.076; the “OD LL-37/OD MTT average” value is 0.080.
